Literature values as cited in paper PMC7751758, “Repurposing Sigma-1 Receptor Ligands for COVID-19 Therapy?” (Frontiers in Pharmacology, 2020).
Several values for one entry are separate records, joined by “and”; a condition that tells them apart may be missing. Equal entries are not always repeated. Entries after “also recorded” stand apart in the source; their conditions may differ.

Experiments:
Sigma-1 receptor = settings: for IC50: read-out: Sigma-1 receptor affinity IC50; for Ki: read-out: Sigma-1 receptor affinity Ki
[1] = system: HCV infection of human hepatocarcinoma Huh-7 cells; settings: absence of cytotoxicity at low micromolar and submicromolar concentrations; ref Gastaminza et al., 2010
[2] = system: HCV-induced cytopathic effect on the engineered cell line n4mBid; settings: leads of the cell protection screen; ref Chockalingam et al., 2010
HCV infection = settings: without significantly reducing cell biomass; ref Mingorance et al., 2014

SMILES	IC50 (Sigma-1 receptor)	Antiviral activity: Virus (SARS-CoV)	Antiviral activity: Virus (MERS-CoV)	Antiviral activity: Virus (EBOV)	other results
NC(=NCc1ccc(Cl)cc1)SCCCc1cnc[nH]1 [Clobenpropit]	1080 nM	–	–	–	reduction in HCV infection of Huh-7 cells, as compared to the vehicle DMSO control [1]: > 85%
OC(CCN1CCCCC1)(c1ccccc1)C1CC2C=CC1C2 (centres unmarked) [biperiden]	–	–	–	–	alleviation of HCV-induced cytopathic effect (n4mBid cell viability relative to untreated cells) [2]: increase n4mBid cell viability
OCCN1CCN(CCCN2c3ccccc3Sc3ccc(C(F)(F)F)cc32)CC1 [Fluphenazine]	–	in vitro activity; also recorded: SARS-CoV SARS-CoV-2	in vitro activity	active	reduction in HCV infection of Huh-7 cells, as compared to the vehicle DMSO control [1]: > 85%
Cc1cc2c(s1)Nc1ccccc1N=C2N1CCN(C)CC1 [olanzapine]	–	–	–	–	Sig-1R activity (Sigma-1 receptor): no significant Sig-1R activity
Clc1ccc2c(c1)CCc1cccnc1C2=C1CCNCC1 [Desloratadine]	–	–	–	–	reduction in HCV infection of Huh-7 cells, as compared to the vehicle DMSO control [1]: > 85%
CCN(CC)CCOc1ccc(C(=C(Cl)c2ccccc2)c2ccccc2)cc1 [Clomiphene]	–	–	–	active	reduction of HCV infection (HCV infection): more than one order of magnitude; cellular toxicity (Ebola virus (EBOV)): < 30%; viral inhibition (Ebola virus (EBOV)): > 50%
CNCCCC12CCC(c3ccccc31)c1ccccc12 [Maprotiline]	–	–	–	active	–
CC(COc1ccccc1Cc1ccccc1)N1CCCCC1 (centres unmarked) [Benproperine]	19 nM	–	–	–	reduction in HCV infection of Huh-7 cells, as compared to the vehicle DMSO control [1]: > 85%
O=[N+]([O-])c1ccc2nc(N3CCNCC3)ccc2c1 [Quipazine-6N]	1250 nM	–	–	–	alleviation of HCV-induced cytopathic effect (n4mBid cell viability relative to untreated cells) [2]: increase n4mBid cell viability
CNCCCN1c2ccccc2CCc2ccccc21 [Desipramine]	1190 nM	–	–	–	reduction of HCV infection (HCV infection): more than one order of magnitude; Ki (Sigma-1 receptor): 1990 nM
CN(C)CCCN1c2ccccc2CCc2ccccc21 [Imipramine]	529 nM	–	–	–	reduction of HCV infection (HCV infection): more than one order of magnitude; Ki (Sigma-1 receptor): 343 nM
CN(C)CCCN1c2ccccc2CCc2ccc(Cl)cc21 [Clomipramine]	–	in vitro activity; also recorded: SARS-CoV SARS-CoV-2	in vitro activity	active	reduction of HCV infection (HCV infection): more than one order of magnitude
COc1ccc(CCN2CCC(Nc3nc4ccccc4n3Cc3ccc(F)cc3)CC2)cc1 [Astemizole]	–	in vitro activity	in vitro activity	active	–
CN1[C@@H]2CC[C@H]1C[C@@H](OC(c1ccccc1)c1ccccc1)C2 [Benztropine]	–	in vitro activity; also recorded: SARS-CoV SARS-CoV-2	in vitro activity	active	reduction of HCV infection (HCV infection): more than one order of magnitude; cellular toxicity (Ebola virus (EBOV)): < 30%; viral inhibition (Ebola virus (EBOV)): > 50%
Oc1cc2c(cc1O)C(c1ccccc1)CNCC2 (centres unmarked) [SKF-38393]	–	–	–	–	alleviation of HCV-induced cytopathic effect (n4mBid cell viability relative to untreated cells) [2]: increase n4mBid cell viability
CN(C)CCOc1ccc(/C(=C(/CCCl)c2ccccc2)c2ccccc2)cc1 [Toremifene]	220 nM	in vitro activity; also recorded: SARS-CoV SARS-CoV-2	in vitro activity	active	reduction in HCV infection of Huh-7 cells, as compared to the vehicle DMSO control [1]: > 85%
Clc1ccc(C(OCCN2CCCCC2)c2ccccc2)cc1 (centres unmarked) [Cloperastine]	277 nM	–	–	–	Ki (Sigma-1 receptor): 20 nM
CN(C)CCOC(C)(c1ccccc1)c1ccc(Cl)cc1 (centres unmarked) [Chlorphenoxamine]	1760 nM	in vitro activity	in vitro activity	–	–
CN1CCC(=C2c3ccccc3C=Cc3ccccc32)CC1 [Cyproheptadine]	–	–	–	–	reduction in HCV infection of Huh-7 cells, as compared to the vehicle DMSO control [1]: > 85%
CC(=O)[C@H]1CC[C@H]2[C@@H]3CCC4=CC(=O)CC[C@]4(C)[C@H]3CC[C@]12C [Progesterone]	1960 nM	–	–	–	Ki (Sigma-1 receptor): 173 to 196 nM and 260 to 338 nM
CC(C)N1CCN(c2ccc(OCC3COC(Cn4cncn4)(c4ccc(Cl)cc4Cl)O3)cc2)CC1 (centres unmarked) [Terconazole]	159 nM	in vitro activity; also recorded: SARS-CoV SARS-CoV-2	in vitro activity	active	–
Cc1nc2sccn2c(=O)c1CCN1CCC(=C(c2ccc(F)cc2)c2ccc(F)cc2)CC1 [Ritanserin]	190 nM	–	–	–	alleviation of HCV-induced cytopathic effect (n4mBid cell viability relative to untreated cells) [2]: increase n4mBid cell viability
CN(C)CCCN1c2ccccc2Sc2ccc(C(F)(F)F)cc21 [Triflupromazine]	470 nM and 605 nM	in vitro activity	in vitro activity	–	alleviation of HCV-induced cytopathic effect (n4mBid cell viability relative to untreated cells) [2]: increase n4mBid cell viability; Ki (Sigma-1 receptor): 154 nM
CN1CCN(CC/C=C2/c3ccccc3Sc3ccc(S(=O)(=O)N(C)C)cc32)CC1 [Thiothixene]	353 nM	in vitro activity	in vitro activity	–	–
